# Patent US6664231B1, “Anti-fungal peptides” (priority 1993, dated 2003)
# Tested on: C. albicans (CA-1, Strain SLU-1)
# Assay: Radial diffusion assay
# Format: cell-based, Candida albicans
# Settings: for C. albicans pmol/30 mm^2 zone: pmoles of peptide added to well to achieve a 30 mm^2 zone, PROBIT analysis, crude or purified (P′) peptide; for Plate Assay (nmol), crude peptide activity / Plate Assay (nmol), pure peptide activity: nanomoles required to achieve a net 30 mm^2 zone (log titration curve); for Plate Assay (nmol), pure peptide activity: HPLC-purified peptide
# Method in brief: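 Yeast at 1×10^6 CFU/mL in agarose underlayer (3% Sabouraud, 10 mM sodium phosphate pH 7.4); 2-fold peptide dilutions in D-PBS from ~1 mg/mL loaded into wells, 3 h at 37° C, then nutrient overlayer overnight. Value: pmol/well giving 30 mm^2 net clear zone, by PROBIT regression.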
Substance,C. albicans pmol/30 mm^2 zone,also measured
H-KSKVGWLIELFHKK-NH2 [XMP.263],"1,197 pmol/30 mm^2 zone",
H-KSKVGWLIFLFHKK-NH2 [XMP.91],>3844 pmol/30 mm^2 zone,
H-KSKVGWLIFLFHKKKSKVGWLIFLFHKK-NH2 [XMP.275],b (No detectable activity up to 5 μg/well),
H-KSKVGWLIFLFHKKKSKVGWLIQLFHKK-NH2 [XMP.273],">2,120 pmol/30 mm^2 zone",
H-KSKVGWLIKLFHKK-NH2 [XMP.92],299 pmol/30 mm^2 zone,
H-KSKVGWLILLFHKK-NH2 [XMP.86],>2048 pmol/30 mm^2 zone,
H-KSKVGWLILLFHKKKSKVGWLILLFHKK-NH2 [XMP.272],">2,599 pmol/30 mm^2 zone",
H-KSKVGWLILLFHKKKSKVGWLIQLFHKK-NH2 [XMP.270],>722 pmol/30 mm^2 zone,
H-KSKVGWLILLWHKK-NH2 [XMP.241],">2,161 pmol/30 mm^2 zone",
H-KSKVGWLINLFHKK-NH2 [XMP.262],984 pmol/30 mm^2 zone,
H-KSKVGWLIQAFHKK-NH2 [XMP.40],253 pmol/30 mm^2 zone,
H-KSKVGWLIQFFHKK-NH2 [XMP.113],947 pmol/30 mm^2 zone,
H-KSKVGWLIQLAHKK-NH2 [XMP.41],734 pmol/30 mm^2 zone,
H-KSKVGWLIQLFAKK-NH2 [XMP.42],548 pmol/30 mm^2 zone,
H-KSKVGWLIQLFFKK-NH2 [XMP.94],>923 pmol/30 mm^2 zone,
H-KSKVGWLIQLFHAK-NH2 [XMP.43],785 pmol/30 mm^2 zone,
H-KSKVGWLIQLFHKA-NH2 [XMP.44],578 pmol/30 mm^2 zone,
H-KSKVGWLIQLFHKF-NH2 [XMP.96],1856 pmol/30 mm^2 zone,
H-KSKVGWLIQLFHKKKSKVGWLIFLFHKK-NH2 [XMP.274],">2,457 pmol/30 mm^2 zone",
H-KSKVGWLIQLFHKKKSKVGWLILLFHKK-NH2 [XMP.271],">1,995 pmol/30 mm^2 zone",
H-KSKVGWLIQLFHKKKSKVGWLIQLFHKK-NH2 [XMP.29],>1469 pmol/30 mm^2 zone,
H-KSKVGWLIQLFHKW-NH2 [XMP.108],>3219 pmol/30 mm^2 zone,
H-KSKVGWLIQLFLKK-NH2 [XMP.87],>1536 pmol/30 mm^2 zone,

Substance,C. albicans pmol/30 mm^2 zone,also measured
H-KSKVGWLIQLFWKK-NH2 [XMP.107],>2796 pmol/30 mm^2 zone,
H-KSKVGWLIQLWHKK-NH2 [XMP.82],518 pmol/30 mm^2 zone,
H-KSKVGWLIRLFHKK-NH2 [XMP.265],"2,996 pmol/30 mm^2 zone",
H-KSKVGWLISLFHKK-NH2 [XMP.104],>5569 pmol/30 mm^2 zone,
H-KSKVGWLITLFHKK-NH2 [XMP.106],1032 pmol/30 mm^2 zone,
H-KSKVGWLIYLFHKK-NH2 [XMP.125],>3150 pmol/30 mm^2 zone,
H-KSKVKALIQLFHKK-NH2 [XMP.161],>2999 pmol/30 mm^2 zone,
H-KSKVKFLIKLFHKK-NH2 [XMP.283],"1,336 pmol/30 mm^2 zone",
H-KSKVKVAIQLFHKK-NH2 [XMP.269],635 pmol/30 mm^2 zone,
H-KSKVKVLIQLFHKK-NH2 [XMP.266],984 pmol/30 mm^2 zone,
H-KSKVKWAIQLFHKK-NH2 [XMP.267],256 pmol/30 mm^2 zone,C. albicans pmol/30 mm^2 zone (listed as XMP.267P′): 106 pmol/30 mm^2 zone
H-KSKVKWLIKLFFKFKSKVKWLIKLFFKF-NH2 [XMP.101],>1040 pmol/30 mm^2 zone,
H-KSKVKWLIKLFHKK-NH2 [XMP.100],462 pmol/30 mm^2 zone,
H-KSKVKWLIQLWHKK-NH2 [XMP.124],351 pmol/30 mm^2 zone,
H-KSKVLWLIQLFHKK-NH2 [XMP.85],>1881 pmol/30 mm^2 zone,
H-KSKVWLIQLFHKK-NH2 [XMP.11],645 pmol/30 mm^2 zone,
H-KVKWLI-NH2 [XMP.313],">11,050 pmol/30 mm^2 zone",
H-KVKWLI-NH2 [compound 313],,"Plate Assay (nmol), crude peptide activity: >11.05 nmol"
H-KVKWLIQ-NH2 [Peptide 306],,"Plate Assay (nmol), crude peptide activity: >10.485 nmol"
H-KVKWLIQ-NH2 [XMP.306],">10,485 pmol/30 mm^2 zone",
H-KVKWLIQL-NH2 [Peptide 300],,"Plate Assay (nmol), pure peptide activity: 0.993 nmol; Plate Assay (nmol), crude peptide activity: 1.957 nmol"
H-KVKWLIQL-NH2 [XMP.300],"1,957 pmol/30 mm^2 zone",C. albicans pmol/30 mm^2 zone (listed as XMP.300P′): 993 pmol/30 mm^2 zone
H-KVKWLIQLF-NH2 [Peptide 295],,"Plate Assay (nmol), pure peptide activity: >2.612 nmol; Plate Assay (nmol), crude peptide activity: >1.977 nmol"

Substance,C. albicans pmol/30 mm^2 zone,also measured
H-KVKWLIQLF-NH2 [XMP.295],">1,977 pmol/30 mm^2 zone","C. albicans pmol/30 mm^2 zone (listed as XMP.295P′): >2,612 pmol/30 mm^2 zone"
H-KVKWLIQLFH-NH2 [Peptide 291],,"Plate Assay (nmol), crude peptide activity: >5.039 nmol"
H-KVKWLIQLFH-NH2 [XMP.291],">5,039 pmol/30 mm^2 zone",
H-KVKWLIQLFHK-NH2 [Peptide 288],,"Plate Assay (nmol), pure peptide activity: 0.279 nmol; Plate Assay (nmol), crude peptide activity: 3.639 nmol"
H-KVKWLIQLFHK-NH2 [XMP.288],">3,062 pmol/30 mm^2 zone",C. albicans pmol/30 mm^2 zone (listed as XMP.288P′): 279 pmol/30 mm^2 zone
H-KWLIQL-NH2 [XMP.315],">5,069 pmol/30 mm^2 zone","C. albicans pmol/30 mm^2 zone (listed as XMP.315P′): >12,853 pmol/30 mm^2 zone"
H-KWLIQL-NH2 [compound 315],,"Plate Assay (nmol), pure peptide activity: >12.853 nmol; Plate Assay (nmol), crude peptide activity: >5.069 nmol"
H-KWLIQLF-NH2 [XMP.308],b (No detectable activity up to 5 μg/well),
H-KWLIQLFH-NH2 [Peptide 302],,"Plate Assay (nmol), pure peptide activity: 2.07 nmol; Plate Assay (nmol), crude peptide activity: >5.497 nmol"
H-KWLIQLFH-NH2 [XMP.302],">5,497 pmol/30 mm^2 zone","C. albicans pmol/30 mm^2 zone (listed as XMP.302P′): 2,070 pmol/30 mm^2 zone"
H-LIQLFH-NH2 [XMP.317],b (No detectable activity up to 5 μg/well),
H-LIQLFHK-NH2 [Peptide 310],,"Plate Assay (nmol), crude peptide activity: >9.475 nmol"
H-LIQLFHK-NH2 [XMP.310],">9,475 pmol/30 mm^2 zone",
H-LIQLFHKK-NH2 [Peptide 304],,"Plate Assay (nmol), crude peptide activity: >8.290 nmol"
H-LIQLFHKK-NH2 [XMP.304],">8,290 pmol/30 mm^2 zone",
H-QLFHKK-NH2 [XMP.319],b (No detectable activity up to 5 μg/well),
H-RRWLIQLRR-NH2 [XMP.336],">7,332 pmol/30 mm^2 zone","C. albicans pmol/30 mm^2 zone (listed as XMP.336P′): h (inactive to 5,268 pmol)"
H-SKVKWL-NH2 [Peptide 312],,"Plate Assay (nmol), crude peptide activity: >11.20 nmol"
H-SKVKWL-NH2 [XMP.312],">11,120 pmol/30 mm^2 zone",
H-SKVKWLI-NH2 [Peptide 305],,"Plate Assay (nmol), crude peptide activity: >10.228 nmol"
H-SKVKWLI-NH2 [XMP.305],">10,228 pmol/30 mm^2 zone",
H-SKVKWLIQ-NH2 [Peptide 299],,"Plate Assay (nmol), crude peptide activity: >8.768 nmol"
H-SKVKWLIQ-NH2 [XMP.299],">8,768 pmol/30 mm^2 zone",
